# Experimental data published in patent US8217035B2, “Pyrimidine derivatives used as PI-3-kinase inhibitors” (Novartis AG, priority 2006, dated 2012).
# Where two headings read alike, the source gives them in different places.
# Tests used:
# [1] = molecular target: PI3 kinase alpha (Homo sapiens, UniProt P42336); assay: PI3K ATP depletion assay (Biological Method 1, Assay 3; KinaseGlo luminescence); type: biochemical; settings: ATP depletion assay, read-out: PI3 Kinase Alpha, IC50
# Outline: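 Compound in DMSO was mixed with 10 nM PI3 kinase and 5 μg/mL phosphatidylinositol, and the reaction was started with 2 μM ATP. It ran to about 50% ATP depletion and was stopped with KinaseGlo.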
# [2] = tested on: A2780 ovarian cancer cells; assay: Cellular proliferation in A2780 cells, Cell Titer Glo (Biological Method 4); type: cell-based; settings: Homo sapiens
# Outline: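 A2780 cells seeded at 1,000/well in DMEM with 10% FBS, at least 2 h before compound, then exposed 72 h at 37 °C, 5% CO2. Viable cells measured by Cell Titer Glo luminescence; EC50 calculated from duplicate conditions.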
# [3] = ovarian cancer cell line A2780, Biological Method 4
# Sequence of PI3 kinase alpha (P42336 whole entry): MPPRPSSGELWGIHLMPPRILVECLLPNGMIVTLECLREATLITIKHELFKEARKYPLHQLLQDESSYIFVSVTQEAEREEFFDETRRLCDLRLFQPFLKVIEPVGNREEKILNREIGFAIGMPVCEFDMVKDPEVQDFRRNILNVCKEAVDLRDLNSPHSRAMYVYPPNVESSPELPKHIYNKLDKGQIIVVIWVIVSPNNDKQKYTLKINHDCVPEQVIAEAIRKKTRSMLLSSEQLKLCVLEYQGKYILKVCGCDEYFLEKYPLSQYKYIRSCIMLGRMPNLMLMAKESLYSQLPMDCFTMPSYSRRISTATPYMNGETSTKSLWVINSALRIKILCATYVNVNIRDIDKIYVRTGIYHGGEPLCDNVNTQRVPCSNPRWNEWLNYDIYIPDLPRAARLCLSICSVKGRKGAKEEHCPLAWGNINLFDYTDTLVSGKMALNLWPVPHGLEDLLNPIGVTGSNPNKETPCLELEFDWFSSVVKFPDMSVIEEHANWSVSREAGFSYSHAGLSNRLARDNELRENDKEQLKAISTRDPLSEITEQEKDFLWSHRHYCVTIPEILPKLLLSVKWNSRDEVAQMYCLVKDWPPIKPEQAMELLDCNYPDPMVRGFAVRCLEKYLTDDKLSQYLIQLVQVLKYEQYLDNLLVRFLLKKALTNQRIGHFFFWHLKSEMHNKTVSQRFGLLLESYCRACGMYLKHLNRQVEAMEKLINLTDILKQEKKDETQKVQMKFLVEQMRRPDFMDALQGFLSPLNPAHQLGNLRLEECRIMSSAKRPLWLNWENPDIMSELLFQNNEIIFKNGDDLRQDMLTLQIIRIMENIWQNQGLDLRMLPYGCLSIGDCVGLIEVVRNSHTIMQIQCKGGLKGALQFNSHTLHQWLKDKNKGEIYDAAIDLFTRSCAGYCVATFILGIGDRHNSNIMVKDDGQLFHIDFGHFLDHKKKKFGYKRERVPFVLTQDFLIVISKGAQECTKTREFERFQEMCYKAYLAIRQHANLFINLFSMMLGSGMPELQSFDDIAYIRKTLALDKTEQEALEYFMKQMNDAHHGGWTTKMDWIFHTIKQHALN
# Sequence of PI3 kinase alpha (P27986 whole entry partner): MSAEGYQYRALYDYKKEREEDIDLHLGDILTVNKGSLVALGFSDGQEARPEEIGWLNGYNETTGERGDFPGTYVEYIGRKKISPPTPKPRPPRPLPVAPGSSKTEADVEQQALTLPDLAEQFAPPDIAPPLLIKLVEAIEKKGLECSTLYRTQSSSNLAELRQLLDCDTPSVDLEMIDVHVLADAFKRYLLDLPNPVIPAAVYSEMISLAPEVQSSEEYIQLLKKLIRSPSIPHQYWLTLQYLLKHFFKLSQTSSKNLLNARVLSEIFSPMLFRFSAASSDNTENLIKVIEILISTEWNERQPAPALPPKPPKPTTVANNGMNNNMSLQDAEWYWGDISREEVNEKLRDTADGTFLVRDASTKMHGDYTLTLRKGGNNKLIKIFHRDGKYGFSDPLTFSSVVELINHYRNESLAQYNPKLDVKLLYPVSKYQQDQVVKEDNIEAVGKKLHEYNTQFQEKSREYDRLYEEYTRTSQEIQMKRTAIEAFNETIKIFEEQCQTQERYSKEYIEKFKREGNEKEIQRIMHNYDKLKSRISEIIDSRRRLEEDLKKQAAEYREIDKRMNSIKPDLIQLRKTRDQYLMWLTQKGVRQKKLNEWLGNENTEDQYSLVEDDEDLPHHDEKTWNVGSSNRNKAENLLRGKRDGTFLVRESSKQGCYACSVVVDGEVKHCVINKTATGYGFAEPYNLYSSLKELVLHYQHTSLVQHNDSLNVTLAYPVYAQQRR
smiles,measurement,setting,value
Nc1ncc(-c2cc(Nc3ccc4[nH]cnc4c3)nc(N3CCOCC3)n2)cn1 [Compound 521],IC50,[1],< 1000 nM
same,EC50,[2]; ovarian cancer cell line A2780,< 10000 nM
CC(C)Oc1ccnc(Nc2cc(-c3cnc(N)cc3C(F)(F)F)nc(N3CCOCC3)n2)c1 [Compound 432],IC50,[1],< 1000 nM
same,EC50,[2]; ovarian cancer cell line A2780,< 10000 nM
Nc1cc(C(F)(F)F)c(-c2cc(N3CCOC(c4cccnc4)C3)nc(N3CCOCC3)n2)cn1 (centres unmarked) [Compound 338],IC50,[1]; Biological Method 1,< 1000 nM
same,EC50,[2]; [3],< 10000 nM
CC(C)C(=O)N1CCC(Oc2cc(-c3cnc(N)cc3C(F)(F)F)nc(N3CCOCC3)n2)CC1 [Compound 458],IC50,[1],< 1000 nM
same,EC50,[2]; ovarian cancer cell line A2780,< 10000 nM
CN1CCC(C(=O)Nc2cc(-c3cnc(N)nc3)nc(N3CCOCC3)n2)CC1 [Compound 289],IC50,[1]; Biological Method 1,< 1000 nM
same,EC50,[2]; [3],< 10000 nM
Nc1cc(C(F)(F)F)c(-c2cc(Nc3cccc(CN4CCOCC4)c3)nc(N3CCOCC3)n2)cn1 [Compound 314],IC50,[1]; Biological Method 1,< 1000 nM
same,EC50,[2]; [3],< 25000 nM
COc1ncccc1Nc1cc(-c2ccc(N)nc2)nc(N2CCOCC2)n1 [Compound 448],IC50,[1],< 1000 nM
same,EC50,[2]; ovarian cancer cell line A2780,< 10000 nM
Nc1ncc(-c2cc(OC3CCOCC3)nc(N3CCOCC3)n2)cn1 [Compound 515],IC50,[1],< 1000 nM
same,EC50,[2]; ovarian cancer cell line A2780,< 1000 nM
Nc1ccc(-c2cc(Nc3ccc4cn[nH]c4c3)nc(N3CCOCC3)n2)cn1 [Compound 227],IC50,[1]; Biological Method 1,< 1000 nM
same,EC50,[2]; [3],< 10000 nM
Nc1ncc(-c2cc(-c3ccc(F)nc3)nc(N3CCOCC3)n2)cn1 [Compound 278],IC50,[1]; Biological Method 1,< 1000 nM
same,EC50,[2]; [3],< 10000 nM
Nc1cc(C(F)(F)F)c(-c2cc(N3CCOC(C(=O)NC4CCOCC4)C3)nc(N3CCOCC3)n2)cn1 (centres unmarked) [Compound 329],IC50,[1]; Biological Method 1,< 1000 nM
same,EC50,[2]; [3],< 25000 nM
Nc1ccc(-c2cc(-n3ncc4cccc(N)c43)nc(N3CCOCC3)n2)cn1 [Compound 345],IC50,[1]; Biological Method 1,< 1000 nM
same,EC50,[2]; [3],< 10000 nM
Nc1cc(C(F)(F)F)c(-c2cc(N3CCOC(c4ccc(F)cc4)C3)nc(N3CCOCC3)n2)cn1 (centres unmarked) [Compound 335],IC50,[1]; Biological Method 1,< 1000 nM
same,EC50,[2]; [3],< 10000 nM
CC(C)OC(=O)N1CC[C@H](Oc2cc(-c3cnc(N)cc3C(F)(F)F)nc(N3CCOCC3)n2)C1 [Compound 534],IC50,[1],< 1000 nM
same,EC50,[2]; ovarian cancer cell line A2780,< 10000 nM
CN(c1cc(-c2ccc(N)nc2)nc(N2CCOCC2)n1)C1CCOCC1 [Compound 368],IC50,[1]; Biological Method 1,< 1000 nM
same,EC50,[2]; [3],< 10000 nM
Nc1cc(C(F)(F)F)c(-c2cc(-c3cncc(CN4CCCCC4)c3)nc(N3CCOCC3)n2)cn1 [Compound 263],IC50,[1]; Biological Method 1,< 1000 nM
same,EC50,[2]; [3],< 10000 nM
CN1CCN(Cc2cncc(-c3cc(-c4ccc(N)nc4)nc(N4CCOCC4)n3)c2)CC1 [Compound 273],IC50,[1]; Biological Method 1,< 1000 nM
same,EC50,[2]; [3],< 10000 nM
Nc1ccc(-c2cc(Nc3cc(C(F)(F)F)ccn3)nc(N3CCOCC3)n2)cn1 [Compound 350],IC50,[1]; Biological Method 1,< 1000 nM
same,EC50,[2]; [3],< 25000 nM
CC(C)N1CCN(c2ccc(Nc3cc(-c4cnc(N)cc4C(F)(F)F)nc(N4CCOCC4)n3)cn2)CC1 [Compound 488],IC50,[1],< 1000 nM
same,EC50,[2]; ovarian cancer cell line A2780,< 10000 nM
COCCNc1cc(-c2cnc(N)nc2)nc(N2CCOCC2)n1 [Compound 14],IC50,[1],< 1000 nM
same,EC50,[2]; ovarian cancer cell line A2780,< 1000 nM
Nc1ncc(-c2cc(O[C@H]3CCCN(C(=O)c4ccc(F)cc4)C3)nc(N3CCOCC3)n2)c(N)n1 [Compound 528],IC50,[1],< 1000 nM
same,EC50,[2]; ovarian cancer cell line A2780,< 10000 nM
N#Cc1cccc(Nc2cc(-c3cnc(N)nc3)nc(N3CCOCC3)n2)c1 [Compound 307],IC50,[1]; Biological Method 1,< 1000 nM
same,EC50,[2]; [3],< 10000 nM
Nc1ccc(-c2cc(Nc3cccc(F)c3)nc(N3CCOCC3)n2)cn1 [Compound 439],IC50,[1],< 1000 nM
same,EC50,[2]; ovarian cancer cell line A2780,< 10000 nM
Nc1cc(C(F)(F)F)c(-c2cc(N3CC[C@H](F)C3)nc(N3CCOCC3)n2)cn1 [Compound 332],IC50,[1]; Biological Method 1,< 1000 nM
same,EC50,[2]; [3],< 1000 nM
CC(=O)N1CCC(Oc2cc(-c3cnc(N)cc3C(F)(F)F)nc(N3CCOCC3)n2)CC1 [Compound 19],IC50,[1],< 1000 nM
same,EC50,[2]; ovarian cancer cell line A2780,< 1000 nM
Nc1ncc(-c2cc(Nc3ccnc4cc(C(F)(F)F)ccc34)nc(N3CCOCC3)n2)cn1 [Compound 409],IC50,[1],< 1000 nM
same,EC50,[2]; ovarian cancer cell line A2780,< 1000 nM
Nc1ncc(-c2cc(Cl)nc(N3CCOCC3)n2)c(N)n1 [Compound 464],IC50,[1],< 1000 nM
same,EC50,[2]; ovarian cancer cell line A2780,< 25000 nM
Nc1ncc(-c2cc(-c3cnc(N)nc3)nc(N3CCOCC3)n2)cn1 [Compound 279],IC50,[1]; Biological Method 1,< 1000 nM
same,EC50,[2]; [3],< 10000 nM
Nc1cc(C(F)(F)F)c(-c2nc(N3CCOCC3)nc(N3CCOCC3)c2F)cn1 [Compound 313],IC50,[1]; Biological Method 1,< 1000 nM
same,EC50,[2]; [3],< 25000 nM
CC(=O)N1CC[C@H](Oc2cc(-c3cnc(N)cc3C(F)(F)F)nc(N3CCOCC3)n2)C1 [Compound 22],IC50,[1],< 1000 nM
same,EC50,[2]; ovarian cancer cell line A2780,< 10000 nM
Cc1nc(N)ncc1-c1cc(Nc2ccc3c(c2)OCCO3)nc(N2CCOCC2)n1 [Compound 477],IC50,[1],< 1000 nM
same,EC50,[2]; ovarian cancer cell line A2780,< 10000 nM
Nc1cc(C(F)(F)F)c(-c2cc(Nc3ccc(-c4nn[nH]n4)cc3)nc(N3CCOCC3)n2)cn1 [Compound 281],IC50,[1]; Biological Method 1,< 1000 nM
same,EC50,[2]; [3],< 25000 nM
N#Cc1cnc(N2CCOCC2)nc1-c1cnc(N)nc1 [Compound 418],IC50,[1],< 1000 nM
same,EC50,[2]; ovarian cancer cell line A2780,< 25000 nM
Nc1cc(C(F)(F)F)c(-c2cc(-c3cncc(CN4CCCC4)c3)nc(N3CCOCC3)n2)cn1 [Compound 264],IC50,[1]; Biological Method 1,< 1000 nM
same,EC50,[2]; [3],< 10000 nM
Nc1ncc(-c2cc(CNC(=O)OC3CCOC3)nc(N3CCOCC3)n2)c(N)n1 (centres unmarked) [Compound 541],IC50,[1],< 1000 nM
same,EC50,[2]; ovarian cancer cell line A2780,< 25000 nM
Nc1ncc(-c2cc(C(=O)Nc3cccnc3)nc(N3CCOCC3)n2)cn1 [Compound 231],IC50,[1]; Biological Method 1,< 1000 nM
same,EC50,[2]; [3],< 10000 nM
Nc1cc(C(F)(F)F)c(-c2cc(N3CCOC(CN4CCCC4)C3)nc(N3CCOCC3)n2)cn1 (centres unmarked) [Compound 220],IC50,[1]; Biological Method 1,< 10000 nM
same,EC50,[2]; [3],< 25000 nM
Cc1nc(N)ncc1-c1nc(N2CCOCC2)nc(Cl)c1C [Compound 468],IC50,[1],< 1000 nM
same,EC50,[2]; ovarian cancer cell line A2780,< 25000 nM
Nc1ncc(-c2cc(Nc3ccccc3C(F)(F)F)nc(N3CCOCC3)n2)cn1 [Compound 393],IC50,[1]; Biological Method 1,< 1000 nM
same,EC50,[2]; [3],< 10000 nM
Nc1ccc(-c2cc(Nc3cc(F)ccc3F)nc(N3CCOCC3)n2)cn1 [Compound 436],IC50,[1],< 1000 nM
same,EC50,[2]; ovarian cancer cell line A2780,< 10000 nM
Nc1ncc(-c2nc(N3CCOCC3)ncc2N)cn1 [Compound 258],IC50,[1]; Biological Method 1,< 1000 nM
same,EC50,[2]; [3],< 25000 nM
N#Cc1ccc(Nc2cc(-c3cnc(N)cc3C(F)(F)F)nc(N3CCOCC3)n2)cc1 [Compound 283],IC50,[1]; Biological Method 1,< 1000 nM
same,EC50,[2]; [3],< 10000 nM
Nc1cc(C(F)(F)F)c(-c2cc(N3CCOC(c4ccc(Cl)cc4)C3)nc(N3CCOCC3)n2)cn1 (centres unmarked) [Compound 336],IC50,[1]; Biological Method 1,< 1000 nM
same,EC50,[2]; [3],< 10000 nM
Nc1cc(C(F)(F)F)c(-c2cc(O[C@H]3CCOC3)nc(N3CCOCC3)n2)cn1 [Compound 26],IC50,[1],< 1000 nM
same,EC50,[2]; ovarian cancer cell line A2780,< 10000 nM
Nc1ncc(-c2cc(O[C@@H]3CCOC3)nc(N3CCOCC3)n2)c(C(F)(F)F)n1 [Compound 531],IC50,[1],< 1000 nM
same,EC50,[2]; ovarian cancer cell line A2780,< 10000 nM
Nc1cc(C(F)(F)F)c(-c2cc(Nc3ccc(OC4CCOCC4)nc3)nc(N3CCOCC3)n2)cn1 [Compound 267],IC50,[1]; Biological Method 1,< 1000 nM
same,EC50,[2]; [3],< 10000 nM
N#Cc1ccc(Nc2cc(-c3cnc(N)cc3C(F)(F)F)nc(N3CCOCC3)n2)cn1 [Compound 284],IC50,[1]; Biological Method 1,< 1000 nM
same,EC50,[2]; [3],< 10000 nM
Nc1ccc(-c2cc(Nc3cccnc3)nc(N3CCOCC3)n2)cn1 [Compound 378],IC50,[1]; Biological Method 1,< 1000 nM
same,EC50,[2]; [3],< 10000 nM
CN(C)CCOc1ccc(Nc2cc(-c3cnc(N)cc3C(F)(F)F)nc(N3CCOCC3)n2)cn1 [Compound 269],IC50,[1]; Biological Method 1,< 1000 nM
same,EC50,[2]; [3],< 10000 nM
Nc1ccc(-c2cc(Nc3ccc(NCCN4CCCC4)nc3)nc(N3CCOCC3)n2)cn1 [Compound 497],IC50,[1],< 1000 nM
same,EC50,[2]; ovarian cancer cell line A2780,< 10000 nM
Cc1c(-c2cnc(N)nc2)nc(N2CCOCC2)nc1-c1cccc(S(C)(=O)=O)c1 [Compound 548],IC50,[1],< 1000 nM
same,EC50,[2]; ovarian cancer cell line A2780,< 10000 nM
Nc1ccc(-c2cc(Cl)nc(N3CCOCC3)n2)cn1 [Compound 369],IC50,[1]; Biological Method 1,< 1000 nM
same,EC50,[2]; [3],< 25000 nM
CC(=O)N1CCc2ccc(Nc3cc(-c4ccc(N)nc4)nc(N4CCOCC4)n3)cc21 [Compound 356],IC50,[1]; Biological Method 1,< 1000 nM
same,EC50,[2]; [3],< 10000 nM
Nc1ncc(-c2cc(N3CCNC(=O)C3)nc(N3CCOCC3)n2)cn1 [Compound 392],IC50,[1]; Biological Method 1,< 1000 nM
same,EC50,[2]; [3],< 10000 nM
CC(=O)c1ccc(Nc2cc(-c3ccc(N)nc3)nc(N3CCOCC3)n2)cc1 [Compound 359],IC50,[1]; Biological Method 1,< 1000 nM
same,EC50,[2]; [3],< 1000 nM
